The record followed here is patent US11524962B2, “Substituted pyrrolo[2,3-d]pyrimidines as inhibitors of protein arginine methyl transferase 5 (PRMT5)” (PRELUDE THERAPEUTICS, INCORPORATED, priority 2017, dated 2022).

In data set [1] the target is PRMT5/MEP50 complex (Homo sapiens (Human), UniProt O14744). Kind of data set: Flash plate assay. Type of data set: biochemical. The procedure: Flash plate assay. Compounds were solubilized, and 3-fold diluted in 100% DMSO. […] Standard reactions were performed in a total volume of 30 μl in assay buffer, with 300 nM histone H4 based AcH4-23 (Anaspec: AS-65002) as substrate. To this was added the PRMT5/MEP50 complex diluted to provide a final assay concentration of 2.5 nM and the compounds were allowed to preincubate for 20 minutes at 37° C. The reaction was initiated by adding S-[3H-methyl]-adenosyl-L-methionine (PerkinElmer: NET155001MC) to final concentration of 1 μM. Following a 30 minutes incubation at 37° C., the reaction was stopped by adding 25 μL of 8M Guanidine HCl. Prepare streptavidin YSI SPA beads (Perkinelmer: RPNQ0012) at 0.3 mg/mL in assay buffer. To each reaction, add 150 μL of SPA beads suspension, and incubated while shaking at room temperature for 30 minutes. The plate was centrifuged at 100×g for 30 second before reading in a scintillation counter. IC50 values were determined by fitting the data to the standard 4 parameters with Hill Slope using GraphPad Prism software. This procedure produced the Flash Plate data in Table 7.

Data set [2] relates to Granta-519 cells. Kind of data set: Cell proliferation assay in Granta-519 cells. Type of data set: cell-based. The following applies: Homo sapiens. As to the method: Granta-519 cells were maintained in PRMI 1640 (Corning Cellgro, Catalog #: 10-040-CV) medium supplemented with 10% v/v FBS (GE Healthcare, Catalog #: SH30910.03). Compounds were dissolved in DMSO to make 10 mM stocks and stored at −20° C. Nine-point, 3-fold serial dilutions were made with DMSO with top concentration at 1 mM (working stocks).
On day of experiment, compound working stocks were further diluted at 1:50 with fresh medium in 96 well plate, and 10 μL of diluted drugs were added to a new 96 well plate for proliferation assay. Cells growing at exponential phase were spun down at 1500 rpm for 4 min and resuspend in fresh medium to reach a density of 0.5×10^6 cells/ml. 200 ul of cells were added to 96 well plate containing diluted drugs and incubated for 3 days. DMSO was used a vehicle control.
On day 3, 10 μL of Cell Counting Kit-8 (CCK-8, Jojindo, CK04-13) solution was added to a new 96 well plate. Cells incubated with drugs for 3 days were resuspended by pipetting up and down, and 100 μL of cells were transferred to 96 well plate containing CCK-8 reagent to measure viable cells. Plates were incubated in CO2 incubator for 2 hours and OD450 values were measured with a microplate reader (iMark microplate reader, Bio-Rad).
For re-plating, compound working stocks were diluted at 1:50 with fresh medium and 10 μL of diluted drugs were added to a new 96 well plate. Cells from Day 3 plate (50 ul) were added to 96 well plate containing fresh drug and additional 150 μL of fresh medium was added to reach 200 μL volume. Plate was returned to CO2 incubator and incubated for 3 more days. Viable cells measurement and re-plating were repeated on day 6, and the final viable cells measurement was taken on day 10.
Percentage of viable cells, relative to DMSO vehicle control, were calculated and plotted in Graphpad Prism ([Inhibitor]vs. normalized response−Variable slope) to determine proliferation IC50 values on day 10.
One day before experiment, Granta-519 cells were passaged to a density of 0.5×10^6 cells/ml. U-87 MG cells were trypsinized and 2,000 cells were seeded into 96-well plates and allow to grow overnight. On the day of experiment (day 0), Granta-519 Cells were spun down at 1,500 rpm for 4 min, resuspended in fresh medium to 0.5×10^6 cells/ml and 190 ul of cells were added to 96 well plates. For U-87 MG cells, old medium was removed and replaced with 190 uL fresh medium. Compound working stocks were first diluted at 1:50 with fresh medium in 96 well plate and 10 μL of diluted drugs were added to 96 well plates containing cells and incubated for 3 days. DMSO was used a vehicle control.
One day 3, 50 uL of Granta-519 cells were transferred to a new 96-well plate and 140 uL fresh medium was added. For U-87 MG cells, old medium was removed and replaced with 190 uL fresh medium. Compound working stocks were freshly diluted at 1:50 with medium and 10 μL of diluted drugs were added to cells and grow for 3 additional days. The same process was repeated on day 6. Cells were allowed to grow for additional 4 days.
On day 10, 100 uL Granta-519 cells were transferred to a new 96 well plate and 10 μL of Cell Counting Kit-8 (CCK-8, Jojindo, CK04-13) solution was added. For U-87 MG cells, old medium was removed and replaced with 100 uL fresh medium and 10 uL CCK-8 solution was added. Plates were incubated in CO2 incubator for 2 hours (Granta-519 cells) or 30 min (U-87 MG cells) and OD450 values were measured with a microplate reader (iMark microplate reader, Bio-Rad). Percentage of viable cells, relative to DMSO vehicle control, were calculated and plotted in Graphpad Prism ([Inhibitor]vs. normalized response−Variable slope) to determine proliferation IC50 values on day 10.
These cell proliferation procedures produced the data in Table 7.

A short description of data set [3]: In vivo pharmacokinetic study in rat. Conditions: for clearance / half-life / Vd / bioavailability: Sprague-Dawley (SD), blood; for clearance / half-life / Vd: iv; for Vd: read-out: Vss; for dose normalized AUC / bioavailability: p.o. 2 mg/kg; for bioavailability: po. As to the method:
In a rat (SD, male, non-fasted) non-crossover cassette (n=2) PK study, Example 1 was dosed at 0.5 mg/kg (DMA: […]=5:95, solution) with another compound via i.v. administration (N=3) and 2 mg/kg (0.5% o Na CMC+0.50% Tween80, suspension) with another compound via oral gauge (p.o.) (N=3).
In a rat (SD, male and female, non-fasted) non-crossover cassette (n=4) PK study, Example 6 was dosed at 0.2 mg/kg (DMA: […]=5:95, solution) with other 3 compounds via i.v. administration (N=2 per sex) and 2 mg/kg (0.5% o Na CMC+0.50% Tween80, suspension) with other 3 compounds via oral gauge (p.o.) (N=2 per sex).
In a rat (SD, male and female, non-fasted) non-crossover PK study, Example 11 was dosed at 1 mg/kg (DMA: 20% HPBCD=5:95, solution) via i.v. administration (N=3 per sex) and 3 mg/kg (0.5% Na CMC+0.5% Tween80, suspension) via oral gauge (p.o.) (N=3 per sex).

The mark [4] stands for this setting: initial testing, read-out: IC50 (flash plate).
Setting [5] is: 240 h, Granta-519, day 10, read-out: Prolif_Granta IC50.
Where [6] appears, read: rat SD male, i.v. 0.5 mg/kg, cassette.
Setting [7] is: rat SD female, i.v. 0.2 mg/kg, cassette.
[8] abbreviates: rat SD male, i.v. 0.2 mg/kg, cassette.

Read-outs that look alike come from different tables or passages of the source.

PRMT5/MEP50 complex, sequence (O14744 whole entry): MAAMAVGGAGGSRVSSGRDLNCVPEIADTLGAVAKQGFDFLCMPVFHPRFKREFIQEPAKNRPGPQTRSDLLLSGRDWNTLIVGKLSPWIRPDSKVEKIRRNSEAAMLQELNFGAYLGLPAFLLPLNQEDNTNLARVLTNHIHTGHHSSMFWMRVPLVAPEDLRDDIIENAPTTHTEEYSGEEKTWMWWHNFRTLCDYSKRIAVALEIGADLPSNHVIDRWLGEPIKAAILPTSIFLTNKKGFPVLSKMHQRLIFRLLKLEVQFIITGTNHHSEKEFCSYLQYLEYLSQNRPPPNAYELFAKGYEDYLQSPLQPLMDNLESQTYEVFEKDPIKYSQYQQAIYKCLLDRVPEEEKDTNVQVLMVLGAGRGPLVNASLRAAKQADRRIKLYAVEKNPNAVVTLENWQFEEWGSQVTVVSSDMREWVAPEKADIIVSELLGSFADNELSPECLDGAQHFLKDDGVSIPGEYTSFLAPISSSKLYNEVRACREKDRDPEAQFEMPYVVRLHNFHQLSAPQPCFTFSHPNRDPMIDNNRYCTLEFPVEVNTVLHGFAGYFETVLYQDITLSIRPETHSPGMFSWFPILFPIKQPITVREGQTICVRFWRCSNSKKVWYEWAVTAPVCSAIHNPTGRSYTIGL
PRMT5/MEP50 complex, sequence (Q9BQA1 whole entry partner): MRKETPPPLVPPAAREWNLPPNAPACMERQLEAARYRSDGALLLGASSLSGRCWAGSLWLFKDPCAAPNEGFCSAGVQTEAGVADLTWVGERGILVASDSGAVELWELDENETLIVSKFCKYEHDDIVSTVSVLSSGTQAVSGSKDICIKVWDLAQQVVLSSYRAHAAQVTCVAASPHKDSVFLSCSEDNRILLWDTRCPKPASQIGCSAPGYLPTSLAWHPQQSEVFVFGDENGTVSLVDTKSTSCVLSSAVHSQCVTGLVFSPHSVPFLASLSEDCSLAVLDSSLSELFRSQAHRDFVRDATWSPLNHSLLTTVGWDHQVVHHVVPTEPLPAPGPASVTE

For `C[C@@](O)(c1ccc2c(c1)CC2)[C@H]1O[C@@H](n2ccc3c(N)ncnc32)[C@H](O)[C@@H]1O` [Example 1, (2R,3R,4S,5S)-2-(4-amino-7H-pyrrolo[2,3-d]pyrimidin-7-yl)-5-((R)-1-(bicyclo[4.2.0]octa-1(6),2,4-trien-3-yl)-1-hydroxyethyl)tetrahydrofuran-3,4-diol], the IC50 in data set [1] (setting [4]) was determined as 0.0063 µM; in data set [1] (read-out: Flash Plate IC50) it was 0.0062 µM; in data set [2] (setting [5]), 0.038 µM; in data set [2] (Granta-519, initial testing, read-out: Prolif_(Granta) IC50), 0.028 µM. The same compound yielded a clearance in data set [3] (setting [6]) of 56.2 mL/min/kg. Moreover, the half-life in data set [3] (setting [6]) is 21 min. The Vd in data set [3] (setting [6]) is 1.36 L/kg. In addition, the “dose normalized AUC” value in data set [3] (rat SD male, cassette) turned out to be 145 ng·kg·h/mL/mg.

As for `Nc1ncnc2c1ccn2[C@@H]1O[C@H]([C@H](O)c2ccc3c(c2)CC3)[C@@H](O)[C@H]1O` [Example 2, (2R,3R,4S,5R)-2-(4-amino-7H-pyrrolo[2,3-d]pyrimidin-7-yl)-5-((R)-bicyclo[4.2.0]octa-1(6),2,4-trien-3-yl(hydroxy)methyl)tetrahydrofuran-3,4-diol], the 50% inhibitory concentration (IC50) came out at 0.0042 µM in data set [1] (setting [4]), 0.0041 µM in data set [1] (read-out: Flash Plate IC50) and 0.035 µM in data set [2] (setting [5]).

`Nc1ncnc2c1c(F)cn2[C@@H]1O[C@H]([C@H](O)c2ccc3c(c2)CC3)[C@@H](O)[C@H]1O` [Example 6, (2R,3R,4S,5R)-2-(4-amino-5-fluoro-7H-pyrrolo[2,3-d]pyrimidin-7-yl)-5-((R)-bicyclo[4.2.0]octa-1(6),2,4-trien-3-yl(hydroxy)methyl)tetrahydrofuran-3,4-diol]: the IC50 in data set [1] (read-out: Flash Plate IC50) was 0.0028 µM. Further, in data set [2] (setting [5]), the IC50 is 0.067 µM. In data set [3] (setting [7]), the clearance amounted to 21.6 mL/min/kg, the half-life is 101 min and the Vd came out at 1.91 L/kg. Besides, in data set [3] (setting [8]), the clearance is 59.2 mL/min/kg, the half-life is 27.6 min and the Vd is 1.81 L/kg. In data set [3] (rat SD female, cassette (n=4)), the bioavailability is over 100% and the “dose normalized AUC” value worked out at 1143 ng·kg·h/mL/mg. For the same compound, in data set [3] (rat SD male, cassette (n=4)), the bioavailability was 51.1% and the “dose normalized AUC” value came to 144 ng·kg·h/mL/mg.

Regarding `Nc1ncnc2c1c(Br)cn2[C@@H]1O[C@H]([C@H](O)c2ccc3c(c2)CC3)[C@@H](O)[C@H]1O` [Example 36, (2R,3R,4S,5R)-2-(4-amino-5-bromo-7H-pyrrolo[2,3-d]pyrimidin-7-yl)-5-((R)-bicyclo[4.2.0]octa-1,3,5-trien-3-yl(hydroxy)methyl)tetrahydrofuran-3,4-diol], the IC50 was determined as 0.02 µM in data set [1] (read-out: Flash Plate IC50) and 1.1 µM in data set [2] (setting [5]).

On to `Cc1ncnc2c1ccn2[C@@H]1O[C@H]([C@H](O)c2nc3c(s2)CCC3)[C@@H](O)[C@H]1O` [Example 52, (2S,3S,4R,5R)-2-((S)-(5,6-dihydro-4H-cyclopenta[d]thiazol-2-yl)(hydroxy)methyl)-5-(4-methyl-7H-pyrrolo[2,3-d]pyrimidin-7-yl)tetrahydrofuran-3,4-diol], for which the IC50 was 0.0093 µM in data set [1] (read-out: Flash Plate IC50) and 0.396 µM in data set [2] (setting [5]).

Take `OCCc1ncnc2c1ccn2[C@@H]1O[C@H]([C@H](O)c2ccc3c(c2)CC3)[C@@H](O)[C@H]1O` [Example 53, (2R,3S,4R,5R)-2-((R)-bicyclo[4.2.0]octa-1,3,5-trien-3-yl(hydroxy)methyl)-5-(4-(2-hydroxyethyl)-7H-pyrrolo[2,3-d]pyrimidin-7-yl)tetrahydrofuran-3,4-diol]: the figures for the concentration for half-maximal inhibition (IC50) in data set [1] (read-out: Flash Plate IC50) and in data set [2] (setting [5]) were 0.134 µM and 10 µM, respectively.

With `CNc1ncnc2c1ccn2[C@@H]1O[C@H]([C@H](O)c2ccc3c(c2)CC3)[C@@H](O)[C@H]1O` [Example 54, (2R,3S,4R,5R)-2-((R)-bicyclo[4.2.0]octa-1(6),2,4-trien-3-yl(hydroxy)methyl)-5-(4-(methylamino)-7H-pyrrolo[2,3-d]pyrimidin-7-yl)tetrahydrofuran-3,4-diol], the IC50 in data set [1] (read-out: Flash Plate IC50) was determined as 0.0376 µM; in data set [2] (setting [5]), 1.01 µM.

Regarding `O[C@@H]1[C@H](O)[C@@H]([C@H](O)c2ccc3c(c2)CC3)O[C@H]1n1ccc2c(Cl)ncnc21` [Example 56, (2R,3S,4R,5R)-2-((R)-bicyclo[4.2.0]octa-1(6),2,4-trien-3-yl(hydroxy)methyl)-5-(4-chloro-7H-pyrrolo[2,3-d]pyrimidin-7-yl)tetrahydrofuran-3,4-diol], the IC50 in data set [1] (read-out: Flash Plate IC50) stood at 0.0176 µM; in data set [2] (setting [5]) it was 50 µM.
